Results: patent US20130183435A1, “LOW TEMPERATURE PLASMA COATING FOR ANTI-BIOFILM FORMATION” (priority 2012, published 2013)

How the values were obtained:
[1] = system: S. epidermidis RP62A biofilm; assay: Susceptibility of bacterial cells in biofilm to 6 μg/ml antibiotic; format: cell-based; details: for reduction of bacterial count in biofilm: 8 hours
Protocol: Susceptibility of bacterial cells in biofilm to antibiotics was studied with a protocol established previously with modification. SS and Ti wafers (1×1 cm) were sterilized, coated with human plasma, and placed into the wells of 24-well microplates. Overnight culture of S. epidermidis was diluted 1:200 into fresh THY medium with 0.5% glucose. Aliquots (1 ml) of the cell suspensions were seeded into each well containing wafers and incubated at 37° C. for 16 hours. The wafers were gently washed three times with PBS to remove non-adherent bacterial cells. Then fresh Mueller Hinton broth (MHB) with and without 6 μg/ml vancomycin or ciprofloxacin was added into the wells containing wafers and cultured at 37° C. for 8 hours. The wafers were washed four times with PBS and then put into tubes with PBS. The biofilms on wafers were detached and disaggregated with ultrasonic bath treatment. The number of bacterial cells was quantified using the spread plate technique. Response to antibiotic treatment of a treated sample was defined as the percentage of untreated samples calculated by CFU numbers. Triplicate of wafers were used in each experiments and four independent experiments were performed for vacomycin and three independent experiments were performed for ciprofloxacin.

S. epidermidis biofilm = assay: Antibiotic susceptibility assay of cells attached on wafers with different dose of ciprofloxacin; format: cell-based; details: for decrease of the number of bacteria recovered from biofilms / bacteria recovered: 128 μg/ml; for decrease of the number of bacteria recovered from biofilms: 48 hours
Protocol: Antibiotic susceptibility assay of S. epidermidis cells attached on wafers with different dose of antibiotics. Biofilm formation on the four groups of wafers in triplicate was performed as described in biofilm formation assay section. The wafers with biofilms were gently washed four times with PBS to remove non-adherent bacterial cells. Then fresh Mueller Hinton broth (MHB) with 0, 2, 8, 32, and 128 μg/ml ciprofloxacin (Sigma-Aldrich, St Louis, Mo.) was added into the wells containing wafers and cultured at 37° C. for 48 hours, with MHB medium with corresponding concentration of ciprofloxacin changed every 12 hours. The wafers were washed four times with PBS and bacteria numbers on the wafers were counted.

| SMILES | reduction of bacterial count in biofilm ([1]; TMS coated SS wafer) | reduction of bacterial count in biofilm ([1]; TMS coated Ti wafer) | reduction of bacterial count in biofilm ([1]; uncoated SS wafer) | reduction of bacterial count in biofilm ([1]; uncoated Ti wafer) | number of bacteria, percent of bacteria on bare surfaces with neither TMS coating nor ciprofloxacin treatment (S. epidermidis biofilm; 8 μg/ml, TMS coated surfaces) | number of bacteria, percent of bacteria on TMS coated surfaces without ciprofloxacin treatment (S. epidermidis biofilm; 32 μg/ml, TMS coated surfaces) | decrease of the number of bacteria recovered from biofilms (S. epidermidis biofilm; uncoated SS surfaces) | decrease of the number of bacteria recovered from biofilms (S. epidermidis biofilm; uncoated Ti surfaces) | bacteria recovered (S. epidermidis biofilm; TMS coated SS surfaces) | bacteria recovered (S. epidermidis biofilm; TMS coated Ti surfaces) | MBC for biofilms (S. epidermidis biofilm; biofilms on TMS coated surfaces, MBC = 99.9% (3 log10 units) decrease) | MBC for bacteria in biofilms (S. epidermidis biofilm; biofilms on uncoated surfaces) | response of bacterial cells to antibiotic treatment ([1]; uncoated wafers) |
| --- | --- | --- | --- | --- | --- | --- | --- | --- | --- | --- | --- | --- | --- |
| O=C(O)c1cn(C2CC2)c2cc(N3CCNCC3)c(F)cc2c1=O [ciprofloxacin] | 99.4±0.1% | 96.8±1.4% | 86±1.2% | 81.8±3.2% | less than 0.01% | less than 0.1% | 99.6±0.07% | 99.3±0.1% | 177±80 | 444±217 | less than 32 μg/ml | more than 128 μg/ml | – |
| CN[C@H](CC(C)C)C(=O)N[C@H]1C(=O)N[C@@H](CC(N)=O)C(=O)N[C@H]2C(=O)N[C@H]3C(=O)N[C@H](C(=O)N[C@H](C(=O)O)c4cc(O)cc(O)c4-c4cc3ccc4O)[C@H](O)c3ccc(c(Cl)c3)Oc3cc2cc(c3O[C@@H]2O[C@H](CO)[C@@H](O)[C@H](O)[C@H]2O[C@H]2C[C@](C)(N)[C@H](O)[C@H](C)O2)Oc2ccc(cc2Cl)[C@H]1O [vacomycin, vancomycin] | about 83.8±4.3% | 91.9±1.6% | – | – | – | – | – | – | – | – | – | – | resistant |
